Test results reported in patent EP4775579A1, “BERBERRUBINE-RELATED COMPOUND” (Mitogenic Co., Ltd., priority 2023, dated 2025).
Counter-ions that a name gives are not always drawn.

Experiments:
[1] = physchem
Excerpt: Determine the minimum amount (mL) of the solvent that can completely dissolve the berberrubine-related compound by changing the volume of the solvent, as appropriate. Calculate the solubility (g/mL) of each berberrubine-related compound in each solvent from the used berberrubine-related compound (1 g) and the minimum volume (mL) of the solvent.
By changing the volume of the solvent, as appropriate, the minimum amount (mL) of the solvent that can completely dissolve the berberrubine-related compound was determined. From the used berberrubine-related compound (1 g) and the minimum volume (mL) of the solvent, the solubility (g/mL) of each berberrubine-related compound in each solvent was determined.

[2] = tested on: cardiac failure and myocardial fibrosis markers; experiment: Quantitative RT-PCR of cardiac failure and myocardial fibrosis markers in aged mice; assay type: in vivo; settings: mice from 24 months of age, 12 weeks after start; adduct 0.5 mg/mL in drinking water; quinoid-type 0.5 mg/mL in diet
Excerpt: Moreover, the results of quantifying cardiac failure and myocardial fibrosis markers in the mice 12 weeks after the start of administration by means of quantitative RT-PCR are shown in FIG. 18.
Moreover, the results of quantifying cardiac failure and myocardial fibrosis markers in the mice 12 weeks after the start of administration by means of quantitative RT-PCR are shown in FIG. 21.

[3] = tested on: mitochondrial mRNA; experiment: Quantitative RT-PCR of mitochondrial mRNA in aged mice; assay type: in vivo; settings: mice from 24 months of age, 12 weeks after start; adduct 0.5 mg/mL in drinking water; quinoid-type 0.5 mg/mL in diet
Excerpt: Moreover, the results of quantifying the mRNA expression of mitochondria in the mice 12 weeks after the start of administration by means of quantitative RT-PCR are shown in FIG. 19.
Moreover, the results of quantifying the expression of Mitol which is mRNA of mitochondria in the mice 12 weeks after the start of administration by means of quantitative RT-PCR are shown in FIG. 22.

[4] = tested on: C2C12 cells; experiment: Oxygen consumption rate (OCR) of C2C12 cells, extracellular flux analyzer (basal respiration, ATP synthesis, maximal respiration); assay type: cell-based; settings: 30 µM
Procedure: A DMSO solution of 3.5 mg/mL of quinoid-type berberrubine was added to C2C12 cells in Dulbecco's modified Eagle (DMEM) medium containing 10% fetal bovine serum (FBS), penicillin, and streptomycin, such that the final concentration was 30 µM (FIG. 4A).
As a control, the same amount of water was added to the C2C12 cells described above.
During this period, the oxygen consumption rate (OCR) of the C2C12 cells was measured over time using an extracellular flux analyzer.
The OCR during the period between the addition of the ATP synthase inhibitor and the addition of the uncoupling agent, the OCR during the period between the addition of the uncoupling agent and the addition of the mitochondrial complex inhibitor, and the OCR in the period after the addition of the mitochondrial complex inhibitor each correlate with the amount of basal respiration, ATP synthesis, and maximal respiration in mitochondria. Thus, the amount of basal respiration, ATP synthesis, and maximal respiration in mitochondria were evaluated using OCR at the points of 30, 60, and 90 minutes as indicators.

[5] = tested on: HeLa cells; experiment: Cancer cell growth, trypan blue cell count; assay type: cell-based, human; settings: 30 µM; 24, 48, and 72 hours after addition
Procedure: Cells were collected at 24, 48, and 72 hours after addition and stained with trypan blue, and the number of cells were measured. Note that the HeLa cells are cell lines derived from human uterus cancer cells and are widely used as model cells for cancer.

[6] = literature value; cited from earlier work
[7] = tested on: tau proteins; experiment: Western blotting of tau proteins in Neuro2A cells with aggregated tau; assay type: cell-based; settings: 30 µM, 8 hours of culturing
Procedure: Neuro2A cells were introduced with ΔN-P301Ltau-CRY2olig by transfection. One day after introduction, nocodazole was added to stop the cell cycle, and subsequent blue light irradiation for 24 hours induced the aggregation of tau proteins in the cells.
After 8 hours of culturing after addition, the tau proteins in the cells were detected by means of Western blotting using an antibody against phosphorylated Tau at position S396 (pS396), an antibody against phosphorylated Tau at position S422 (pS422), an antibody against full length Tau (JM), and an antibody against the C-terminal region of Tau (tauC). The tau proteins were detected at around 100 kDa.

[8] = tested on: mitochondria isolated from cardiomyocytes of mice; experiment: OCR of mitochondria isolated from cardiomyocytes of treated mice, flux analyzer; assay type: in vivo; settings: 12 weeks after start; adduct 0.5 mg/mL in drinking water; quinoid-type 0.5 mg/mL in diet
Excerpt: Moreover, mitochondria were isolated from cardiomyocytes of mice 12 weeks after the start of administration using a standard method. 23A and 23B.

[9] = tested on: Mouse fetal fibroblast (MEF) cells; experiment: Tom20 immunofluorescence staining, content of mitochondria in MEF cells; assay type: cell-based; settings: 30 µM, 48 hours after addition
Procedure: (§1) 48 hours after addition, Tom20, which is a mitochondrial outer membrane protein, was detected by immunofluorescence staining. For the detection of Tom20, the anti-Tom20 antibody (Santa Cruz, sc-11415) was used.

[10] = tested on: C57BL/6N24 mice; experiment: M-mode echocardiography in aged mice; assay type: in vivo; settings: mice from 24 months of age, 12 weeks after start; adduct 0.5 mg/mL in drinking water; quinoid-type 0.5 mg/mL in diet
Excerpt: The results of echocardiography using the M-mode echocardiography technique on the mice 12 weeks after the start of administration are shown in FIG. 16.
The results of echocardiography using the M-mode echocardiography technique on the mice 12 weeks after the start of administration are shown in FIG. 20.

[11] = tested on: mouse spermatozoa; experiment: Sperm motility and MitoTracker staining after oral administration to mice; assay type: in vivo
Procedure: Male C57BL/6NJcl mice aged 9 to 10 weeks were orally administered 1.25% agar containing 0.35 mg/mL of quinoid-type berberrubine or 1.25% agar not containing quinoid-type berberrubine for 2 weeks. The oral administration was performed by placing a container containing this agar in a cage with the mice, such that the mice could constantly ingest this agar from the container (subsequent oral administration of agar to mice was performed in the same manner). At 20 weeks of age, the mice were anesthetized isoflurane (KANTO KAGAKU), euthanized by cervical dislocation, and had their testes and epididymis removed. The removed epididymis was cut into pieces with scissors in 1 mL of phosphate buffered saline (PBS) and then placed at room temperature for 1 hour, thereby preparing sperm samples. 20 µL of the sample was transferred to a glass bottom dish, and mitochondria and nuclei were stained by MitoTracker (manufactured by Thermo Fisher Scientific) and Hoechst (manufactured by NACALAI TESQUE, INC.), respectively.

[12] = tested on: mouse visceral fat; experiment: Accumulation of visceral fat in mice; assay type: in vivo; settings: male mice aged 50 weeks; oral, 1.25% agar containing 0.35 mg/mL for 2 months
Procedure: Male C57BL/6NJcl mice aged 50 weeks were orally administered 1.25% agar containing 0.35 mg/mL of quinoid-type berberrubine or 1.25% agar not containing quinoid-type berberrubine (control) for 2 months. At the end of the period, accumulation of visceral fat in the mice was observed.

[13] = tested on: mitochondrial respiratory chain supercomplexes; experiment: Formation of mitochondrial respiratory chain supercomplexes, FRET between GFP-complex I and RFP-complex IV in C2C12 cells; assay type: cell-based; settings: 3, 10, 30, or 60 µM; 24 hours after addition
Procedure: At the point of 24 hours after addition, formation of a mitochondrial respiratory chain supercomplex was detected by detecting FRET between GFP and RFP, resulting from the association of complex I and complex IV.

[14] = tested on: PINK1-knockout MEF cells; experiment: Tom20 immunofluorescence staining, content of mitochondria in PINK1-knockout MEF cells (Parkinson's disease model); assay type: cell-based, Mouse; settings: 30 µM, 48 hours after addition
Procedure: as §1
Note that PINK1 is the gene responsible for Parkinson's disease, and PINK1 deficiency causes mitochondrial dysfunction associated with Parkinson's disease. Therefore, PINK1-knockout MEF cells are used as a model for patients affected by Parkinson's disease.

[15] = tested on: mice irradiated with UV; experiment: Skin of UV-irradiated mice, visual observation; assay type: in vivo; settings: oral, 1.25% agar containing 0.35 mg/mL for 2 months; UV 3 times a week for 8 weeks
Procedure: Male C57BL/6NJcl mice aged 8 weeks were orally administered 1.25% agar containing 0.35 mg/mL of quinoid-type berberrubine or 1.25% agar not containing quinoid-type berberrubine (control) for 2 months. The skin of the mice during the same period was irradiated with UV 3 times a week for 8 weeks. The irradiation dose was 1 mW/cm^2 for 70 seconds (70 mJ/cm^2) in the first week, 1 mW/cm^2 for 80 seconds (80 mJ/cm^2) in the second week, 1 mW/cm^2 for 90 seconds (90 mJ/cm^2) in the third week, and 1 mW/cm^2 for 100 seconds (100 mJ/cm^2) in the fourth week and thereafter. At the end of the same period, the skin of the mice was visually observed.

[16] = tested on: brown fat cells; experiment: TMRM/Hoechst fluorescence microscopy of primary cultured brown fat cells; assay type: cell-based, mice; settings: 30 µM, 48 hours after addition
Procedure: Brown fat cells removed from fetal C57BL/6NJcl mice were cut into pieces with scissors in an isolation buffer solution (0.123 M of sodium chloride, 5 mM of glucose, 5 mM of potassium chloride, 1.3 mM of calcium chloride, 100 mM of HEPES-NaOH (pH 7.4), 4% BSA) containing 1 mg/mL of collagenase, and warmed in a water bath at 37 °C for 30 minutes. After removal of aggregates using a cell strainer, the cells were collected by centrifugation at 1000 x g for 5 minutes and suspended in a DMEM medium containing 20% FBS, thereby preparing primary cultured cells of the brown fat cells.
Moreover, as a control, the same amount of DMSO as in the DMSO solution of quinoid-type berberrubine was added to the primary cultured cells.
The primary cultured cells cultured for 48 hours after addition had the nuclei stained with Hoechst (manufactured by NACALAI TESQUE, INC.) and mitochondria stained with tetramethylrhodamine methyl ester (TMRM, manufactured by Thermo Fisher Scientific) and then were observed under a fluorescence microscope (magnification: 60x).

COc1ccc2cc3n(cc-2c1=O)CCc1cc2c(cc1-3)OCO2 [berberrubine acetate salt]
solubility at 0.5 h ([1]; methanol): 34 mg/mL
solubility at 0.5 h ([1]; water): 30 mg/mL

COc1ccc2cc3n(cc-2c1=O)CCc1cc2c(cc1-3)OCO2 [quinoid-type berberrubine, 10-methoxy-5,6-dihydro-9H-[1,3]dioxolo[4,5-g]isoquinolino [3,2-a]isoquinolin-9-one]
expression levels of cardiac failure markers (Nppa, Nppb, and Myh7) compared to the control [2]: reduced
expression levels of myocardial fibrosis markers (Collagen1 and Ctgf) compared to the control [2]: reduced
expression of Mitol compared to the control [3]: increase
basal respiration in mitochondria, enhancement compared to the controls ([4]; 24 hours after addition, OCR at 30 minutes): about 4 fold
ATP synthesis in mitochondria, enhancement compared to the controls ([4]; 24 hours after addition, OCR at 60 minutes): about 4 fold
maximal respiration in mitochondria, enhancement compared to the controls ([4]; 24 hours after addition, OCR at 90 minutes): about 4 fold
ATP synthesis in mitochondria, compared to the addition of the berberrubine acetic acid adduct ([4]; C2C12 cells): about 2.5 fold
basal respiration in mitochondria, compared to the addition of the berberrubine acetic acid adduct ([4]; C2C12 cells): about 2.5 fold
maximal respiration in mitochondria, compared to the addition of the berberrubine acetic acid adduct ([4]; C2C12 cells): about 2.6 fold
ratio of the number of HeLa cells after administration with respect to the number of HeLa cells in the control [5]: decreased over time
SOLUBILITY (g/mL) OF BERBERRUBINE-RELATED COMPOUND IN 1 mL OF SOLVENT, WATER [6]: 0.000013 (LITERAT URE VALUE) g/mL
expression level of full-length Tau [7]: no significant changes
ratio of the expression level of phosphorylated Tau at position S396 with respect to that of full-length Tau (pS396-tau/JM), reduction compared to the control [7]: about 35%
ratio of the expression level of phosphorylated Tau at position S422 with respect to that of full-length Tau (pS422-tau/JM), reduction compared to the control [7]: no significant changes
oxygen consumption rate (OCR) in State 2 (ADP-limited state) compared to the control [8]: increased
oxygen consumption rate (OCR) in State 3 (activated respiratory state) compared to the control [8]: increased
oxygen consumption rate (OCR) in State 3u (uncoupled state) compared to the control [8]: increased
oxygen consumption rate (OCR) in State 4o (oligomycin-induced state) compared to the control [8]: increased
content of mitochondria in the cells compared to the control [9]: increased
% left ventricular fractional shortening (%FS) compared to the control [10]: increase
left ventricular ejection fraction (LVEF) compared to the control [10]: increase
left ventricular end-diastolic diameter (LVDd) compared to the control [10]: decrease
left ventricular end-systolic diameter (LVDs) compared to the control [10]: decrease
left ventricular filling pressure (E/e') compared to the control [10]: decrease
number of spermatozoa in which mitochondria were stained with MitoTracker, increase compared to the control ([11]; 1.25% agar containing 0.35 mg/mL for 2 weeks): about twofold
sperm motility compared to the control ([11]; quinoid-type: 1.25% agar containing 0.35 mg/mL for 2 weeks, adduct: 2 mg/mL aqueous solution): more actively motile
visceral fat accumulation compared to mice not administered [12]: inhibited
formation of mitochondrial respiratory chain supercomplexes (FRET between GFP and RFP) [13]: promoted the formation of mitochondrial respiratory chain supercomplexes in a concentration-dependent manner
content of mitochondria in the cells [14]: increased
number of wrinkles compared to mice not administered [15]: fewer
skin darkening compared to mice not administered [15]: inhibited
wrinkle depths compared to mice not administered [15]: shallower
increase in amount of active mitochondria having normal membrane potential, compared to the addition of a berberrubine acetic acid adduct [16]: to a greater extent
staining of mitochondria by TMRM (active mitochondria having normal membrane potential) [16]: strong staining
